Laboratory results reported in patent publication US8273754B2, “Substituted 1H-pyrazolo[3,4-D]pyrimidine-6-amine compounds” (ArQule, Inc., priority 2008, dated 2012).
Where two headings read alike, the source gives them in different places.

Tests used:
FGFR2 (N549H) = target: T1, FGFR2 (N549H) (Homo sapiens, UniProt P21802, N549H); experiment: fluorescent ELISA assay for inhibitors of FGFR2 kinase; format: biochemical; conditions: Pyk2 peptide substrate, 60 minutes
T1 construct: purchased Millipore 14-742
Method in brief: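 FGFR2 enzyme (0.5 μM) phosphorylates biotinylated Pyk2 peptide (37 μM) with 12.5 μM ATP added, in Tris-HCl buffer containing 10 mM MgCl2, 2 mM DTT and 75 μM ATP, for 60 min. Peptide captured on streptavidin 30 min at room temperature; phosphotyrosine detected by antibody, alkaline phosphatase secondary and Attophos fluorescence (ex 400/em 595 nm). Inhibition seen as signal decrease.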

cancer cells = experiment: MTS cell growth inhibition assay (72 hours); format: cell-based
Method in brief: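 Growth inhibition read as formazan absorbance at 492 nm after 4 h MTS/PMS, following 72 h compound exposure at 37 °C in 1% FBS DMEM (cells pre-seeded 18 h). IC50 = 50% absorbance reduction; inhibition graded in bands.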

[1] = Homo sapiens, DLD-1, 72 h, DLD-1 cells, read-out: DLD-1 MTS 72 hr at 10 μM
[2] = Homo sapiens, KATO III, 72 h, KATO III cells, read-out: KATO III MTS 72 hr at 10 μM
[3] = Homo sapiens, MDA-MB-231, 72 h, MDA-MB-231 cells, read-out: MDA-MB-231 MTS 72 hr at 10 μM
[4] = Homo sapiens, NCI-H1299, 72 h, NCI-H1299 cells, read-out: NCI-H1299 MTS 72 hr at 10 μM
[5] = PaCa-2, 72 h, PACA-2 cells, read-out: PACA-2 MTS 72 hr at 10 μM

T1 sequence (P21802 22-821 N549H): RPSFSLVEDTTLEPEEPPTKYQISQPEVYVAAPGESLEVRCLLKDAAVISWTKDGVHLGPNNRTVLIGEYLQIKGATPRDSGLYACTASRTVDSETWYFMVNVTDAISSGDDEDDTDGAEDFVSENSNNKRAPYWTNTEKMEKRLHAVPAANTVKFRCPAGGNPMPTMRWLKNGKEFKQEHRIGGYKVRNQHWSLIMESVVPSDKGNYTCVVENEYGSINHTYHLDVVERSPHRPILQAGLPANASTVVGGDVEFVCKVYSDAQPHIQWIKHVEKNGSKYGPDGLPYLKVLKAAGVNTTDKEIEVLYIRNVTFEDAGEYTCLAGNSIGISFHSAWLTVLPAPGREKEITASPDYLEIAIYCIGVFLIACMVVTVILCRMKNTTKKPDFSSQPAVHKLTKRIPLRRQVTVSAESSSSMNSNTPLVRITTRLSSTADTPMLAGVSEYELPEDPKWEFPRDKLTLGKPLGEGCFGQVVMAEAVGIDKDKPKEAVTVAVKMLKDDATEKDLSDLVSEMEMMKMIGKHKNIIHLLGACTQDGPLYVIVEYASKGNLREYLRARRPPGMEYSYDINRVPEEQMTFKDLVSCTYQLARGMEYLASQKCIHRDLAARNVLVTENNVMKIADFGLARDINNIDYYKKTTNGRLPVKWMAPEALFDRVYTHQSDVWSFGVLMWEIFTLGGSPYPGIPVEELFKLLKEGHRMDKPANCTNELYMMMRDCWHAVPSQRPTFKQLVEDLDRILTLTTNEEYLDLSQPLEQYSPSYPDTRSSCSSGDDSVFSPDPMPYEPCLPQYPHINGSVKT

Row | Structure (SMILES) | IC50 (FGFR2 (N549H)) [µM] | melting point [°C] | inhibition at 10 µM (cancer cells; [1]) [%] | inhibition at 10 µM (cancer cells; [2]) [%] | inhibition at 10 µM (cancer cells; [3]) [%] | inhibition at 10 µM (cancer cells; [4]) [%] | inhibition at 10 µM (cancer cells; [5]) [%]
1 | Nc1nc(NC2Cc3ccccc3N(Cc3cccc(-c4ccccc4)c3)C2)c2cn[nH]c2n1 (centres unmarked) [Compound 224, N4-(1-(biphenyl-3-ylmethyl)-1,2,3,4-tetrahydroquinolin-3-yl)-1H-pyrazolo[3,4-d]pyrimidine-4,6-diamine] | 19.3 | 128 to 132 | > 79 | > 79 | < 50 | > 79 | > 79
2 | Nc1nc(NC2Cc3ccccc3N(C(=O)c3ccc(Cl)cc3Cl)C2)c2cn[nH]c2n1 (centres unmarked) [Compound 13, (3-(6-amino-1H-pyrazolo[3,4-d]pyrimidin-4-ylamino)-3,4-dihydroquinolin-1(2H)-yl)(2,4-dichlorophenyl)methanone] | 17.9 | 165 to 173 | < 50 | < 50 | < 50 | < 50 | < 50
3 | Nc1nc(NC2Cc3ccccc3N(S(=O)(=O)c3ccc(Cl)cc3Cl)C2)c2cn[nH]c2n1 (centres unmarked) [Compound 14, N^4-(1-(2,4-dichlorophenylsulfonyl)-1,2,3,4-tetrahydroquinolin-3-yl)-1H-pyrazolo[3,4-d]pyrimidine-4,6-diamine] | 0.23 | 153 to 163 | < 50 | 50 to 79 | < 50 | < 50 | < 50

The next lines start with results.

Row | IC50 (FGFR2 (N549H)) [µM] | melting point [°C] | Structure (SMILES) | inhibition at 10 µM (cancer cells; [1]) [%] | inhibition at 10 µM (cancer cells; [2]) [%] | inhibition at 10 µM (cancer cells; [3]) [%] | inhibition at 10 µM (cancer cells; [4]) [%] | inhibition at 10 µM (cancer cells; [5]) [%]
4 | 3.06 | 170 to 174 | Nc1nc(NC2Cc3ccccc3N(Cc3ccc(Cl)cc3Cl)C2)c2cn[nH]c2n1 (centres unmarked) [Compound 4, N^4-(1-(2,4-dichlorobenzyl)-1,2,3,4-tetrahydroquinolin-3-yl)-1H-pyrazolo[3,4-d]pyrimidine-4,6-diamine] | > 79 | > 79 | > 79 | > 79 | > 79
5 | 1.81 | 110 to 114 | Nc1nc(NC2Cc3ccccc3N(Cc3ccc(F)cc3F)C2)c2cn[nH]c2n1 (centres unmarked) [Compound 1, N^4-(1-(2,4-difluorobenzyl)-1,2,3,4-tetrahydroquinolin-3-yl)-1H-pyrazolo[3,4-d]pyrimidine-4,6-diamine] | > 79 | > 79 | < 50 | 50 to 79 | 50 to 79
